Test [1] addresses T1, Endothelial lipase (EL) (Homo sapiens, UniProt Q9Y5X9).
T1 construct: HT-1080 cells that were transformed using RAGE technology (Athersys) to overexpress endogenous EL; endogenous in cells; conditioned medium used
T1 sequence (Q9Y5X9 21-500): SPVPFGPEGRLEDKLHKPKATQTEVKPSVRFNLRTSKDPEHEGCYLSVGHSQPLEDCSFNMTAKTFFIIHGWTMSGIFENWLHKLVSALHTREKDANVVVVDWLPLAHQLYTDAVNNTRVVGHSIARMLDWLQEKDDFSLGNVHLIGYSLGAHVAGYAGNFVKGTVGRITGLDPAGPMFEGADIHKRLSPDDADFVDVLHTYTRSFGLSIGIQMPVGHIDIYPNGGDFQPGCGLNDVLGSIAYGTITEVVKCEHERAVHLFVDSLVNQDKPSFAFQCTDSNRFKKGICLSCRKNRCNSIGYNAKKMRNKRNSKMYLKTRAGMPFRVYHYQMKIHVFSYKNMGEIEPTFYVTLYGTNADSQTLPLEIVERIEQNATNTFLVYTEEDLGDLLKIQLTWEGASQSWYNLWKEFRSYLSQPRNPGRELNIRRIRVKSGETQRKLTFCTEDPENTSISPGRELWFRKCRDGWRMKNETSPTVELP
The experiment in a line: Endothelial lipase (EL) enzymatic assay, fluorescent substrate A10070 in DMPG vesicles. Type of test: biochemical. The following applies: EL from conditioned media of HT-1080 cells; compound preincubated 30 min at 37° C; read-out: EL IC50. Put shortly:
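Compounds were preincubated with enzyme for 30 min at 37° C before FRET-substrate vesicles (A10070 in DMPG, 0.11 mole fraction) were added. Reaction rates were obtained from the 300–900 sec slope of fluorescence at 490/530 nm.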

In test [2] the target is T2, hepatic lipase (HL) (Homo sapiens, UniProt P11150).
T2 construct: made in house; host or cells: COS cells (conditioned medium, partially purified)
T2 sequence (P11150 23-499): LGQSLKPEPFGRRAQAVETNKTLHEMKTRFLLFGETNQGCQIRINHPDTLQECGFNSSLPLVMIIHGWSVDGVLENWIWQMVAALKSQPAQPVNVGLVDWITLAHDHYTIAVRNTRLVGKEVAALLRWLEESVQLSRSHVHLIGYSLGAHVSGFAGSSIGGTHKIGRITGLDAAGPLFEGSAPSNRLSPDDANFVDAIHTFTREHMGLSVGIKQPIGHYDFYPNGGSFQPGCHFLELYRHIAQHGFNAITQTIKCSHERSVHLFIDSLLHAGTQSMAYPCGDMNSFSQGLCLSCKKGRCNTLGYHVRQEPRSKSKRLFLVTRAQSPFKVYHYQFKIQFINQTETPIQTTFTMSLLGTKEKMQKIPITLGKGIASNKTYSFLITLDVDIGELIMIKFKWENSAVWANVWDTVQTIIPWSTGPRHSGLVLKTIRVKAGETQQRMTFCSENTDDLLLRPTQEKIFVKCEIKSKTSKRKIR
The experiment in a line: Hepatic lipase (HL) enzymatic assay, fluorescent substrate A10070 in DMPG vesicles. Type of test: biochemical. The following applies: HL partially purified from conditioned media of COS cells; compound preincubated 30 min at 37° C; read-out: HL IC50. The procedure:
Endothelial lipase (EL) and hepatic lipase (HL) activities were measured using a fluorescent substrate, A10070, (Invitrogen, CA) doped into an artificial vesicle containing DMPG (Avanti Polar Lipids) as the excipient. Vesicles were prepared by combining 571 μL of 29 mM DMPG in a 1:1 mixture of MeOH and CHCl3 with 2000 μL of 1 mM A10070 in a 1:1 mixture of MeOH and CHCl3. The mixture was dried under nitrogen in multiple vials then resuspended in 20 mL total volume of 50 mM HEPES pH 8.0 buffer containing 50 mM NaCl and 0.2 mM EDTA. The sample was allowed to sit at room temperature for 15 min and then was sonicated 3×4 mins on ice with a Branson Sonicator using duty cycle 1. This preparation provides vesicles with a mole fraction of 0.11 for the FRET substrate.
The enzymatic assay was measured using 384-well white Optiplates. Each well contained 20 μL of assay buffer (50 mM HEPES pH 8.0, 50 mM NaCl and 1 mM CaCl2) and 0.25 μL of a DMSO solution containing a compound of interest. EL or HL (10 μL) was added and allowed to incubate with the compound for 30 min at 37° C. The source of EL was conditioned media obtained from HT-1080 cells that were transformed using RAGE technology (Athersys) to overexpress endogenous EL, and HL was partially purified from conditioned media obtained from COS cells overexpressing HL. The reaction was started by the addition of 10 μL of a 1:10 dilution of vesicles. The final total reaction volume was […]. The reaction rates were measured on a Gemini plate reader with an excitation wavelength of 490 nm and an emission wavelength of 530 nm. Readings were taken over a period of 60 minutes, and the slope between 300 and 900 secs of the readout was used to calculate the rate of the reaction.

This is an account of results in patent US20140011799A1 (Bristol-Myers Squibb Company, priority 2012, published 2014).

For orientation: IC50 means the point on the concentration scale where inhibition reaches its midpoint. In the case of `COC(=O)CCS(=O)(=O)C(c1nnc(CNS(N)(=O)=O)o1)c1nc2ccc(-c3cnn(C)c3)cc2s1` (stereo not drawn) [Example 112, methyl 3-(((6-(1-methyl-1H-pyrazol-4-yl)-1,3-benzothiazol-2-yl)(5-((sulfamoylamino)methyl)-1,3,4-oxadiazol-2-yl)methyl)sulfonyl)propanoate], the IC50 in test [1] and in test [2] was < 10 nM each time.
On to `Cn1cc(-c2ccc3nc(C(c4nnc(CNS(N)(=O)=O)o4)S(C)(=O)=O)sc3c2)cn1` (stereo not drawn) [Example 113, N-((5-((6-(1-methyl-1H-pyrazol-4-yl)-1,3-benzothiazol-2-yl)(methylsulfonyl)methyl)-1,3,4-oxadiazol-2-yl)methyl) sulfamide], for which the IC50 in test [1] was < 10 nM; in test [2] it was 220 nM.
On to `CS(=O)(=O)C(c1nnc(CNS(N)(=O)=O)o1)c1nc2ccc(Br)cc2s1` (stereo not drawn) [Example 114, N-((5-((6-bromo-1,3-benzothiazol-2-yl)(methylsulfonyl)methyl)-1,3,4-oxadiazol-2-yl)methyl) sulfamide], for which the figures for the IC50 in test [1] and in test [2] were < 10 nM and 220 nM, respectively.
The corresponding values for `COCCS(=O)(=O)C(c1nnc(CNS(=O)(=O)NC(=O)OC(C)(C)C)o1)c1nc2ccc(-c3cnn(C)c3)cc2s1` (stereo not drawn) [Example 115, tert-butyl (((5-(((2-methoxyethyl)sulfonyl)(6-(1-methyl-1H-pyrazol-4-yl)-1,3-benzothiazol-2-yl)methyl)-1,3,4-oxadiazol-2-yl)methyl)sulfamoyl)carbamate] are 117 nM and > 25000 nM.
The corresponding values for `COCCS(=O)(=O)C(c1nnc(CNS(N)(=O)=O)o1)c1nc2ccc(-c3cnn(C)c3)cc2s1` (stereo not drawn) [Example 116, N-((5-(((2-methoxyethyl)sulfonyl)(6-(1-methyl-1H-pyrazol-4-yl)-1,3-benzothiazol-2-yl)methyl)-1,3,4-oxadiazol-2-yl)methyl) sulfamide] are < 10 nM and 143 nM.
Turning to `Cc1noc(C)c1-c1ccc2nc(C(c3nnc(CNS(N)(=O)=O)o3)S(C)(=O)=O)sc2c1` (stereo not drawn) [Example 117, N-[(5-{[6-(3,5-dimethyl-1,2-oxazol-4-yl)-1,3-benzothiazol-2-yl](methylsulfonyl)methyl}-1,3,4-oxadiazol-2-yl)methyl] sulfuric diamide], the figures for the IC50 in test [1] and in test [2] were 24 nM and 230 nM, respectively.
As for `Cc1cc(-c2ccc3nc(C(c4nnc(CNS(N)(=O)=O)o4)S(C)(=O)=O)sc3c2)n(C)n1` (stereo not drawn) [Example 118, N-[(5-{[6-(1,3-dimethyl-1H-pyrazol-5-yl)-1,3-benzothiazol-2-yl](methylsulfonyl)methyl}-1,3,4-oxadiazol-2-yl)methy] sulfuric diamide], the IC50 in test [1] was 18 nM; in test [2], 396 nM.
For the compound `COCCS(=O)(=O)C(c1nnc(CNS(N)(=O)=O)o1)c1nc2ccc(-c3ccccc3)cc2s1` (stereo not drawn) [Example 119, N-[(5-{[(2-methoxyethyl)sulfonyl](6-phenyl-1,3-benzothiazol-2-yl)methyl}-1,3,4-oxadiazol-2-yl)methyl]sulfuric diamide], the IC50 in test [1] and in test [2] was < 10 nM throughout.
As for `C=CCS(=O)(=O)C(c1nnc(CNS(N)(=O)=O)o1)c1nc2ccc(-c3ccccc3)cc2s1` (stereo not drawn) [Example 120, N-((5-((allylsulfonyl)(6-phenyl-1,3-benzothiazol-2-yl)methyl)-1,3,4-oxadiazol-2-yl)methyl)sulfamide], the IC50 in test [1] and in test [2] was < 10 nM in each case.
Consider `CC(C)(C)OC(=O)NS(=O)(=O)NCc1nnc(C(c2nc3ccc(-c4cncnc4)cc3s2)S(=O)(=O)Cc2ccccc2)o1` (stereo not drawn) [Example 121, tert-butyl (((5-((benzylsulfonyl)(6-(5-pyrimidinyl)-1,3-benzothiazol-2-yl)methyl)-1,3,4-oxadiazol-2-yl)methyl)sulfamoyl)carbamate], for which the IC50 stood at 147 nM in test [1] and 6550 nM in test [2].
For the compound `COC(=O)NCCS(=O)(=O)C(c1nnc(CNS(N)(=O)=O)o1)c1nc2ccc(-c3ccccc3)cc2s1` (stereo not drawn) [Example 122, methyl (2-(((6-phenyl-1,3-benzothiazol-2-yl)(5-((sulfamoylamino)methyl)-1,3,4-oxadiazol-2-yl)methyl)sulfonyl)ethyl)carbamate], the IC50 in test [1] and in test [2] was < 10 nM in each case.
For the compound `CC(C)(C)OC(=O)NS(=O)(=O)NCc1nnc(C(c2nc3ccc(-c4ccc(Cl)cc4)cc3s2)S(=O)(=O)Cc2ccccc2)o1` (stereo not drawn) [Example 123, tert-butyl (((5-((benzylsulfonyl)(6-(4-chlorophenyl)-1,3-benzothiazol-2-yl)methyl)-1,3,4-oxadiazol-2-yl)methyl)sulfamoyl)carbamate], the IC50 in test [1] and in test [2] was < 10 nM each time.
As to `NS(=O)(=O)NCc1nnc(C(c2nc3ccc(Br)cc3s2)S(=O)(=O)Cc2ccccc2)o1` (stereo not drawn) [Example 124, N-((5-((benzylsulfonyl)(6-bromo-1,3-benzothiazol-2-yl)methyl)-1,3,4-oxadiazol-2-yl)methyl)sulfamide], the IC50 in test [1] is 48 nM; in test [2], 37 nM.
Consider `NS(=O)(=O)NCc1nnc(C(c2nc3ccc(-c4cncnc4)cc3s2)S(=O)(=O)Cc2ccccc2)o1` (stereo not drawn) [Example 125, N-((5-((benzylsulfonyl)(6-(5-pyrimidinyl)-1,3-benzothiazol-2-yl)methyl)-1,3,4-oxadiazol-2-yl)methyl) sulfamide], for which the IC50 in test [1] was < 10 nM; in test [2] it was 103 nM.
Regarding `NS(=O)(=O)NCc1nnc(C(c2nc3ccc(-c4ccc(F)cc4)cc3s2)S(=O)(=O)Cc2ccccc2)o1` (stereo not drawn) [Example 127, N-((5-((benzylsulfonyl)(6-(4-fluorophenyl)-1,3-benzothiazol-2-yl)methyl)-1,3,4-oxadiazol-2-yl)methyl) sulfamide], the IC50 in test [1] and in test [2] was < 10 nM throughout.
With `NS(=O)(=O)NCc1nnc(C(c2nc3ccc(-c4ccc(C(F)(F)F)cc4)cc3s2)S(=O)(=O)Cc2ccccc2)o1` (stereo not drawn) [Example 128, N-((5-((benzylsulfonyl)(6-(4-(trifluoromethyl)phenyl)-1,3-benzothiazol-2-yl)methyl)-1,3,4-oxadiazol-2-yl)methyl) sulfamide], the IC50 in test [1] and in test [2] was < 10 nM in each case.
As for `NS(=O)(=O)NCc1nnc(C(c2nc3ccc(-c4cccc(Cl)c4)cc3s2)S(=O)(=O)Cc2ccccc2)o1` (stereo not drawn) [Example 129, N-((5-((benzylsulfonyl)(6-(3-chlorophenyl)-1,3-benzothiazol-2-yl)methyl)-1,3,4-oxadiazol-2-yl)methyl) sulfamide], the IC50 in test [1] and in test [2] was < 10 nM in each case.
For `CS(=O)(=O)C(c1nnc(CNS(N)(=O)=O)o1)c1nc2ccc(-c3ccc(C(=O)N4CCOCC4)cc3)cc2s1` (stereo not drawn) [Example 130, N-((5-((methylsulfonyl)(6-(4-(4-morpholinylcarbonyl)phenyl)-1,3-benzothiazol-2-yl)methyl)-1,3,4-oxadiazol-2-yl)methyl)sulfamide], the IC50 was < 10 nM in test [1] and 22 nM in test [2].
